Source: US20090068059A1, “METHOD OF PREVENTING HYDROGEN SULFIDE ODOR GENERATION IN AN AQUEOUS MEDIUM” (priority 2007, published 2009)
Where “and” joins values, the source holds several entries; their conditions need not be identical. Equal entries are not always repeated. Structures can show the parent of a compound that is named as a salt.

System: sulfate reducing bacteria (SRB)
Assay: Serum bottle test: control of H2S generation and sulfate reducing bacteria in synthetic nutrient medium
Type: cell-based
Protocol: The test protocol was as follows: 100 mL serum bottles were filled with synthetic nutrient medium, then stoppered, capped, and autoclaved, and allowed to cool to at least 35 ° C. Using a 1 mL syringe with needle, the treatment was added at desired dosages to prepared serum bottles (triplicates of each dosage). No treatment was added for baseline controls. At least 6 baseline serum bottles were used. Using a 1 mL syringe with needle, 0.1 mL of prepared culture was added to each serum bottle. Next, a 10^10 cells/ml concentration of the sulfate reducers was prepared (using autoclaved synthetic nutrient medium) inside an anaerobic chamber. Using a 1 ml syringe with needle, 0.1 ml of the prepared sulfate reducers culture was added to each serum bottle. The bottles were then incubated at the desired temperature. The baseline dissolved sulfide levels were then measured to determine if the samples were ready for efficacy analysis. Using a 30 mL syringe with needle, 30 mL of sample was removed from each serum bottle. About 25 mL of the sample was added to a 30 mL bottle containing 0.125 mL zinc acetate solution, followed by adding 1 mL of 1N NaOH. The sulfide in the fixed sample was then measured. The remaining 5 mL of sample in the syringe was used for pH determination.

[1] = H2S generation, inhibitor concentration 1 ppm
[2] = H2S generation, inhibitor concentration 2.5 ppm
[3] = H2S generation, inhibitor concentration 5 ppm
[4] = inhibitor concentration 2.5 ppm
[5] = inhibitor concentration 100 ppm

[H]/N=C(\N/C(=N/[H])NCCCCCCNC(=N)NC(=N)Nc1ccc(Cl)cc1)Nc1ccc(Cl)cc1 [Chlorhexidine dihydrochloride]
inhibition at 1 ppm [1]: 96% | % Inhibition (H2S generation, inhibitor concentration 1 ppm, dihydrochloride): 98% and 95% | inhibition at 2.5 ppm [2]: 100% | inhibition at 5 ppm [3]: 100% | H2S concentration (ppm) [4]: 0 ppm | H2S concentration (ppm) (inhibitor concentration 5 ppm): 0 ppm | inhibition at 25 ppm (inhibitor concentration 25 ppm): 99% | inhibition at 50 ppm (inhibitor concentration 50 ppm): 99% | inhibition at 100 ppm [5]: 100%

N=C(NCCCCCCNC(=N)NC(=N)Nc1ccc(Cl)cc1)NC(=N)Nc1ccc(Cl)cc1.O=C(O)[C@H](O)[C@@H](O)[C@H](O)[C@H](O)CO.O=C(O)[C@H](O)[C@@H](O)[C@H](O)[C@H](O)CO [Chlorhexidine digluconate]
% Inhibition [1]: 100% | % Inhibition [2]: 100% | % Inhibition [3]: 100% | H2S concentration (ppm) (inhibitor concentration 1 ppm): 0 ppm | H2S concentration (ppm) [4]: 0 ppm | H2S concentration (ppm) (inhibitor concentration 5 ppm): 0 ppm | % H2S Inhibition (inhibitor concentration 25 ppm): 99% | % H2S Inhibition (inhibitor concentration 50 ppm): 99% | % H2S Inhibition [5]: 99% and 100%
